Experimental data published in BindingDB's records for doi:10.1021/acs.jmedchem.9b00963 (Hong Kong Polytechnic University, 2019).

How the values were obtained:
[1] = Inhibition of P-gp (unknown origin) expressed in human LCC6MDR cells assessed as reversal of paclitaxel resistance after 5 days by MTS/PMS assay
[2] = Inhibition of BCRP (unknown origin) transfected in HEK293/R2 cells assessed as reversal of topotecan resistance after 5 days by MTS/PMS assay
[3] = Inhibition of BCRP in human MCF7/MX100 cells assessed as reversal of topotecan resistance after 5 days by MTS/PMS assay

SMILES	EC50 [1]	EC50 [2]	EC50 [3]
Cc1ccc2oc(-c3ccc(OCCOCCOCCn4cc(CCCOc5ccc(-c6cc(=O)c7ccc(F)cc7o6)cc5)nn4)cc3)cc(=O)c2c1	219 nM	14 nM	20 nM
O=c1cc(-c2ccc(OCCCc3cn(CCOCCOCCOc4ccc(-c5cc(=O)c6cc(F)ccc6o5)cc4)nn3)cc2)oc2cc(F)ccc12	161 nM	3.1 nM	4 nM
Cc1ccc2oc(-c3ccc(OCCCCc4cn(CCOCCOc5ccc(-c6cc(=O)c7cc(F)ccc7o6)cc5)nn4)cc3)cc(=O)c2c1		15 nM	64 nM
COC(=O)c1cccc(COc2c(-c3ccc(OCCOCCn4cc(CCCCOc5ccc6c(=O)cc(-c7ccccc7)oc6c5)nn4)cc3)oc3ccccc3c2=O)c1	325 nM	5.2 nM	
COC(=O)c1cccc(COc2c(-c3ccc(OCCOCCOCCn4cc(-c5cccc(-c6cn(CCOCCOCCOc7ccc(-c8oc9ccccc9c(=O)c8OCc8cccc(C(=O)OC)c8)cc7)nn6)c5)nn4)cc3)oc3ccccc3c2=O)c1	> 1000 nM	2.8 nM	13 nM
O=c1cc(-c2ccccc2)oc2cc(OCCCCc3cn(CCOCCOCCOc4ccc(-c5oc6ccccc6c(=O)c5OCc5ccccc5)cc4)nn3)ccc12	278 nM	35 nM	16 nM
O=c1cc(-c2ccccc2)oc2cc(OCCOCCOCCn3cc(CN(CCOc4ccc5c(=O)cc(-c6ccccc6)oc5c4)Cc4ccccc4)nn3)ccc12	403 nM	54 nM	58 nM
O=c1cc(-c2ccccc2)oc2cc(OCCOCCn3cc(CN(Cc4ccccc4)Cc4cn(CCOCCOc5ccc6c(=O)cc(-c7ccccc7)oc6c5)nn4)nn3)ccc12	> 1000 nM	153 nM	278 nM
COC(=O)c1cccc(COc2c(-c3ccc(OCCOCCOCCn4cc(CN(Cc5ccccc5)Cc5cn(CCOCCOCCOc6ccc(-c7oc8ccccc8c(=O)c7OCc7cccc(C(=O)OC)c7)cc6)nn5)nn4)cc3)oc3ccccc3c2=O)c1	> 1000 nM	3.3 nM	4.3 nM
O=c1c(OCc2ccccc2)c(-c2ccc(OCCOCCOCCn3cc(CN(Cc4ccccc4)Cc4cn(CCOCCOCCOc5ccc(-c6oc7ccccc7c(=O)c6OCc6ccccc6)cc5)nn4)nn3)cc2)oc2ccccc12	560 nM	36 nM	26 nM
COC(=O)c1cccc(COc2c(-c3ccc(OCCOCCOCCn4cc(CN5CCN(Cc6cn(CCOCCOCCOc7ccc(-c8oc9ccccc9c(=O)c8OCc8cccc(C(=O)OC)c8)cc7)nn6)CC5)nn4)cc3)oc3ccccc3c2=O)c1	> 1000 nM	31 nM	40 nM
COC(=O)c1cccc(COc2c(-c3ccc(OCCOCCn4cc(CN(C)CCN(C)Cc5cn(CCOCCOc6ccc(-c7oc8ccccc8c(=O)c7OCc7cccc(C(=O)OC)c7)cc6)nn5)nn4)cc3)oc3ccccc3c2=O)c1	> 1000 nM	133 nM	84 nM
COC(=O)c1cccc(COc2c(-c3ccc(OCCOCCn4cc(CN5CCN(Cc6cn(CCOCCOc7ccc(-c8oc9ccccc9c(=O)c8OCc8cccc(C(=O)OC)c8)cc7)nn6)CC5)nn4)cc3)oc3ccccc3c2=O)c1	683 nM	18 nM	19 nM
COC(=O)c1cccc(COc2c(-c3ccc(OCCOCCn4cc(CN(Cc5ccncc5)Cc5cn(CCOCCOc6ccc(-c7oc8ccccc8c(=O)c7OCc7cccc(C(=O)OC)c7)cc6)nn5)nn4)cc3)oc3ccccc3c2=O)c1	> 1000 nM	49 nM	25 nM
COC(=O)c1cccc(COc2c(-c3ccc(OCCOCCn4cc(CN(Cc5cn(CCOCCOc6ccc(-c7oc8ccccc8c(=O)c7OCc7cccc(C(=O)OC)c7)cc6)nn5)c5ccccc5)nn4)cc3)oc3ccccc3c2=O)c1	> 1000 nM	6.8 nM	2.2 nM
COC(=O)c1cccc(COc2c(-c3ccc(OCCOCCOCCn4cc(-c5ccc(-c6cn(CCOCCOCCOc7ccc(-c8oc9ccccc9c(=O)c8OCc8cccc(C(=O)OC)c8)cc7)nn6)cc5)nn4)cc3)oc3ccccc3c2=O)c1	> 1000 nM	2.4 nM	14 nM
COC(=O)c1cccc(COc2c(-c3ccc(OCCOCCOCCn4cc(CCCOc5ccc(-c6cc(=O)c7ccc(F)cc7o6)cc5)nn4)cc3)oc3ccccc3c2=O)c1	246 nM	2 nM	2.3 nM
O=c1cc(-c2ccccc2)oc2cc(OCCCc3cn(CCOCCOCCOc4ccc(-c5oc6ccccc6c(=O)c5OCc5ccccc5)cc4)nn3)ccc12	259 nM	60 nM	78 nM
COC(=O)c1cccc(COc2c(-c3ccc(OCCOCCOCCn4cc(CCCOc5ccc6c(=O)cc(-c7ccccc7)oc6c5)nn4)cc3)oc3ccccc3c2=O)c1	414 nM	3.5 nM	7 nM
COC(=O)c1cccc(COc2c(-c3ccc(OCCOCCOCCn4cc(CCCCOc5ccc6c(=O)cc(-c7ccccc7)oc6c5)nn4)cc3)oc3ccccc3c2=O)c1	285 nM		
COC(=O)c1cccc(COc2c(-c3ccc(OCCOCCn4cc(COCCOc5ccc6c(=O)cc(-c7ccccc7)oc6c5)nn4)cc3)oc3ccccc3c2=O)c1	437 nM		18 nM
O=c1cc(-c2ccc(OCCOCCn3cc(CN(Cc4ccccc4)Cc4cn(CCOCCOc5ccc(-c6cc(=O)c7ccccc7o6)cc5)nn4)nn3)cc2)oc2ccccc12	670 nM		205 nM
O=c1cc(-c2ccccc2)oc2cc(OCCN(Cc3ccccc3)Cc3cn(CCOCCOCCOc4ccc(-c5oc6ccccc6c(=O)c5OCc5ccccc5)cc4)nn3)ccc12	983 nM	156 nM	69 nM
O=c1cc(-c2ccccc2)oc2cc(OCCn3cc(CN(Cc4ccccc4)Cc4cn(CCOc5ccc6c(=O)cc(-c7ccccc7)oc6c5)nn4)nn3)ccc12	> 1000 nM	243 nM	485 nM
OCCOCCn1cc(CN(Cc2ccccc2)Cc2cn(CCOCCO)nn2)nn1	> 1000 nM	> 1000 nM	> 1000 nM
O=c1cc(-c2ccccc2)oc2cc(OCCN(Cc3ccccc3)Cc3cn(CCOc4ccc5c(=O)cc(-c6ccccc6)oc5c4)nn3)ccc12	897 nM	190 nM	280 nM
Cc1ccc2oc(-c3ccc(OCCOCCOCCn4cc(CN(Cc5ccccc5)Cc5cn(CCOCCOCCOc6ccc(-c7cc(=O)c8cc(C)ccc8o7)cc6)nn5)nn4)cc3)cc(=O)c2c1	763 nM		46 nM
COC(=O)c1cccc(COc2c(-c3ccc(OCCOCCOCCn4cc(CCCCOc5ccc(-c6cc(=O)c7cc(C)ccc7o6)cc5)nn4)cc3)oc3ccccc3c2=O)c1	420 nM		
COC(=O)c1cccc(COc2c(-c3ccc(OCCOCCn4cc(CCCCOc5ccc(-c6cc(=O)c7cc(C)ccc7o6)cc5)nn4)cc3)oc3ccccc3c2=O)c1	430 nM		

Now from value to compound:

EC50 [1]	EC50 [2]	EC50 [3]	SMILES
201 nM			O=c1cc(-c2ccc(OCCCc3cn(CCOCCOc4ccc(-c5cc(=O)c6ccccc6o5)cc4)nn3)cc2)oc2ccccc12
155 nM	7.2 nM		O=c1cc(-c2ccc(OCCOCCn3cc(CCCOc4ccc(-c5cc(=O)c6ccc(F)cc6o5)cc4)nn3)cc2)oc2ccccc12
960 nM	303 nM	235 nM	O=c1cc(-c2ccc(OCCOCCn3cc(COCCOc4ccc5c(=O)cc(-c6ccccc6)oc5c4)nn3)cc2)oc2ccccc12
630 nM	86 nM	205 nM	O=c1cc(-c2ccc(OCCOCCn3cc(CN(CCOc4ccc5c(=O)cc(-c6ccccc6)oc5c4)Cc4ccccc4)nn3)cc2)oc2ccccc12
334 nM	27 nM	20 nM	O=c1cc(-c2ccccc2)oc2cc(OCCN(Cc3ccccc3)Cc3cn(CCOCCOCCOc4ccc(-c5cc(=O)c6cc(F)ccc6o5)cc4)nn3)ccc12
69 nM	6.4 nM	7.9 nM	O=c1cc(-c2ccc(OCCCc3cn(CCOCCOc4ccc5c(=O)cc(-c6ccccc6)oc5c4)nn3)cc2)oc2cc(F)ccc12
255 nM	24 nM	7.4 nM	O=c1cc(-c2ccc(OCCOCCOCCn3cc(CCCOc4ccc(-c5cc(=O)c6ccc(F)cc6o5)cc4)nn3)cc2)oc2ccccc12
313 nM			COC(=O)c1cccc(COc2c(-c3ccc(OCCOCCOCCn4cc(COCCOc5ccc6c(=O)cc(-c7ccccc7)oc6c5)nn4)cc3)oc3ccccc3c2=O)c1
967 nM	230 nM	264 nM	O=c1cc(-c2ccccc2)oc2cc(OCCOCc3cn(CCOCCOCCOc4ccc(-c5cc(=O)c6cc(F)ccc6o5)cc4)nn3)ccc12
> 1000 nM	285 nM	195 nM	O=c1cc(-c2ccccc2)oc2cc(OCCOCc3cn(CCOCCOc4ccc(-c5cc(=O)c6cc(F)ccc6o5)cc4)nn3)ccc12
345 nM			O=c1cc(-c2ccccc2)oc2cc(OCCOCc3cn(CCOCCOc4ccc(-c5oc6ccccc6c(=O)c5OCc5ccccc5)cc4)nn3)ccc12
210 nM	55 nM	16 nM	Cc1ccc2oc(-c3ccc(OCCOCCOCCn4cc(CN(CCOc5ccc6c(=O)cc(-c7ccccc7)oc6c5)Cc5ccccc5)nn4)cc3)cc(=O)c2c1
350 nM	35 nM	185 nM	Cc1ccc2oc(-c3ccc(OCCOCCOCCn4cc(CCCOc5ccc6c(=O)cc(-c7ccccc7)oc6c5)nn4)cc3)cc(=O)c2c1
384 nM	52 nM	203 nM	O=c1cc(-c2ccc(OCCOCCOCCn3cc(CCCOc4ccc5c(=O)cc(-c6ccccc6)oc5c4)nn3)cc2)oc2ccccc12
> 1000 nM	285 nM	160 nM	Cc1ccc2oc(-c3ccc(OCCCCc4cn(CCOCCOCCOc5ccc(-c6cc(=O)c7ccccc7o6)cc5)nn4)cc3)cc(=O)c2c1
89 nM	28 nM	27 nM	O=c1cc(-c2ccc(OCCCc3cn(CCOCCOCCOc4ccc5c(=O)cc(-c6ccccc6)oc5c4)nn3)cc2)oc2cc(F)ccc12
		151 nM	Cc1ccc2oc(-c3ccc(OCCCCc4cn(CCOCCOCCOc5ccc6c(=O)cc(-c7ccccc7)oc6c5)nn4)cc3)cc(=O)c2c1
963 nM	303 nM	340 nM	O=c1cc(-c2ccc(OCCOCCOCCn3cc(COCCOc4ccc5c(=O)cc(-c6ccccc6)oc5c4)nn3)cc2)oc2ccccc12
